In PubChem BioAssay (NCI):
Several values for one entry are separate records, joined by “and”; a condition that tells them apart may be missing. Equal values may be shown once.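 48-hour exposure; five concentrations; linearly interpolated endpoints. The concentration for 50% growth inhibition is given as GI50. TGI: concentration producing complete growth inhibition.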

Experiments:
Assay in all cases: inhibition of tumour cell growth, NCI panel, 48 h
ACHN renal = system: ACHN renal
EKVX NSCLC = system: EKVX NSCLC
K-562 leukemia = system: K-562 leukemia
LOX IMVI melanoma = system: LOX IMVI melanoma
LXFL 529 NSCLC = system: LXFL 529 NSCLC
OVCAR-5 ovarian = system: OVCAR-5 ovarian
SNB-75 CNS = system: SNB-75 CNS
SW-620 colon = system: SW-620 colon
XF 498 CNS = system: XF 498 CNS
DMS 273 small cell lung = system: DMS 273 small cell lung
HS 578T breast = system: HS 578T breast

Row | SMILES | TGI (ACHN renal) [µM] | TGI (EKVX NSCLC) [µM] | TGI (K-562 leukemia) | TGI (LOX IMVI melanoma) [µM] | TGI (LXFL 529 NSCLC) [µM] | TGI (OVCAR-5 ovarian) [µM] | TGI (SNB-75 CNS) | TGI (SW-620 colon) [µM] | TGI (XF 498 CNS) [µM] | TGI (DMS 273 small cell lung) [µM] | GI50 (ACHN renal) [µM] | GI50 (EKVX NSCLC) [µM] | GI50 (K-562 leukemia) [µM] | GI50 (LOX IMVI melanoma) [µM] | GI50 (SNB-75 CNS) [µM] | GI50 (SW-620 colon) [µM] | GI50 (HS 578T breast) [µM] | TGI (HS 578T breast) [µM] | GI50 (OVCAR-5 ovarian) [µM]
1 | C=C(C[N+](C)(C)C)N/N=C/c1oc(-c2ccc(OC)c(OC)c2)c(-c2ccc(OC)c(OC)c2)c1[N+](=O)[O-] | 31.5 | > 100 | 52.5 µM | 28.9 | 52.4 | 40.3 | 78.2 µM | 34.5 | 56.6 |  |  |  |  |  |  |  |  |  | 
2 | BrC(Br)([P+](c1ccccc1)(c1ccccc1)c1ccccc1)[P+](c1ccccc1)(c1ccccc1)c1ccccc1 | 69.3 | 63 |  | 27.2 | 34.5 | 81.3 | 53.3 µM | 29.6 |  | 32.6 |  |  |  |  |  |  |  |  | 
3 | C1=CC=C2NCCSCCNC3=CC=CC=CC3=NCCSCCN=C2C=C1 | > 100 | > 100 | > 100 µM | > 100 | > 100 | > 100 | > 100 µM | > 100 |  | > 100 |  |  |  |  |  |  |  |  | 
4 | O=C1[C@H]2ON(c3ccccc3)C(c3cccc([N+](=O)[O-])c3)[C@H]2C(=O)N1c1ccc(Cc2ccc(N3C(=O)[C@@H]4ON(c5ccccc5)C(c5cccc([N+](=O)[O-])c5)[C@@H]4C3=O)cc2)cc1 (stereo partly specified) | > 100 | > 100 | > 100 µM | > 100 | > 100 | > 100 | > 100 µM | > 100 |  | > 100 |  |  |  |  |  |  |  |  | 
5 | O=C1Cc2ccccc2CCc2ccccc21 | > 100 | > 100 | > 100 µM | > 100 | > 100 | > 100 | > 100 µM | > 100 |  | > 100 |  |  |  |  |  |  |  |  | 
6 | O=C(NOC(=O)c1ccc([N+](=O)[O-])cc1)c1ccc(Cl)cc1 | > 100 | > 100 | > 100 µM |  | > 100 | > 100 | 54.6 µM | > 100 | > 100 |  |  |  |  |  |  |  |  |  | 
7 | COc1cc(-c2nn3c(=O)n(-c4ccc(Cl)cc4)c(=O)nc3s2)cc(OC)c1OC | > 67.7 | > 100 | 50 µM and > 31.6 µM | > 50 |  | > 100 | 43.1 µM and 21.1 µM | > 100 |  | > 100 | > 50 | > 50 | 15.8 | > 50 | 17.2 | > 50 |  |  | 
8 | O=C1OC(c2ccc(Cl)c3ccccc23)c2ccccc21 (stereo unspecified) | > 100 | > 100 | > 100 µM |  |  | > 100 | 51.1 µM |  | > 100 |  |  |  |  |  |  |  |  |  | 
9 | CC(C)c1ccc2c(c1)c(SC(C)(C)C)c(CC(C)(C)C(=O)O)n2Cc1ccc(Cl)cc1 | 24.3 | 13 | 37.8 µM | 24.7 |  | 29.2 | 22.3 µM | 29.1 |  |  | 11.6 | 4.42 | 7.48 | 10.9 | 9.76 | 12.4 | 11.4 | 29.4 | 14.9
10 | Cc1ccc2c(C(C[N+](=O)[O-])c3ccco3)c(-c3ccccc3)[nH]c2c1 (stereo unspecified) | > 100 | > 100 | > 100 µM | > 100 |  | > 100 | 71 µM | > 100 |  |  | 41.4 | 55 | 5.19 | 44.2 | 4.75 | 11.4 | 17.5 | > 100 | > 100
11 | CCCCCCCCCCCCNC(=O)[C@H]1CSC(c2ccsc2)N1 (stereo partly specified) | 1.75 | 1.85 | 2.04 µM | 1.64 |  | 1.83 | 1.67 µM | 1.85 |  |  | 0.938 | 0.991 | 1.02 | 0.824 | 0.938 | 0.969 | 1.17 | 2.45 | 0.991
12 | CCn1c(-c2nonc2N)nc2c(C#CC(C)(C)O)ncc(OC[C@@H]3CCCN3)c21 | > 25 | > 25 | > 25 µM | > 19.4 |  | > 25 | > 21.8 µM | > 25 |  |  | 8.76 | 11.7 | 9 | 5.5 | 0.942 | 6.84 | 1.72 | > 19.5 | 10.6
13 | C(/C=C/N1CCCC1)=C\c1nc(N2CCCC2)c2ccccc2n1 | 30.8 | 37.9 | 35.6 µM | 32 | 28 | 28.9 | 31.6 µM | 29.8 |  | 34.2 |  |  |  |  |  |  |  |  | 
14 | CC12O[Te]34OC1(C)C(C)(O3)C2(C)O4 | 27 | 62.6 |  | 16.4 | 26.7 | 23.7 | > 8.75 µM | 32.6 |  | 37.7 |  |  |  |  |  |  |  |  | 
15 | Cc1cc(C)c2nccc(NCCCN(C)C)c2c1[N+](=O)[O-] | > 100 | > 100 | > 100 µM | 51.9 |  | > 100 | > 100 µM | > 100 |  |  |  |  |  |  |  |  |  | > 100 | 
